Results on three compounds are retold here after patent publication US8492310B2, “Herbicidal compositions containing benzoylpyrazole compounds” (priority 2008, dated 2013).

Like-named read-outs stand apart in the source and are kept apart here.

Assay type in all cases: in vivo
Assay [1] relates to barnyardgrass (Echinochloa crus-qalli L.). The assay is described as follows: Foliar treatment pot test, visual growth inhibition rate, barnyardgrass (EC). Particulars: 504 h, 4.0-5.0 leaf stage, 21 DAT, read-out: Growth inhibition rate (%) of EC Measured value. From the text: (§1) When the herbicidal activity in a case where two active ingredients are combined, is larger than the simple sum of the respective herbicidal activities of the two active ingredients (the expected activity), it is called a synergistic effect. The activity expected by the combination of two active ingredients can be calculated as follows (Colby S. R., “Weed”, vol. 15, p. 20-22, 1967). E=α+β−(α×β÷100) where
(§2) Upland field soil was put into a 1/1,000,000 hectare pot, and seeds of various plants (barnyardgrass (Echinochloa crus-qalli L.), crabgrass (Digitaria sanguinalis L.), giant foxtail (Setaria faberi Herrm.), velvetleaf (Abutilon theophrasti MEDIC.) and prickly sida (Sida spinosa L.)) were sown. When the respective plants reached predetermined leaf stage, herbicidal compositions in predetermined amounts were diluted with water in an amount corresponding to 300 L/ha and applied for foliar treatment by a small sprayer.
(§3) Further, in accordance with the above Colby's formula, the growth inhibition rate (calculated value) was calculated. In Tables, with respect to the compound Q, Compound Nos. in Table 1 are described, and with respect to other herbicidal compounds, common names are described. Further, in Tables, barnyardgrass is represented by “EC”, crabgrass by “DS”, giant foxtail by “SF”, velvetleaf by “AT”, and prickly sida by “SS”.

In assay [2] the test system is giant foxtail (Setaria faberi Herrm.). The experiment in a line: Foliar treatment pot test, visual growth inhibition rate, giant foxtail (SF). Particulars: 336 h, read-out: Growth inhibition rate (%) of SF Measured value.
From the text: as §1, §2, §3

Assay [3] concerns velvetleaf (Abutilon theophrasti MEDIC.). The experiment in a line: Foliar treatment pot test, visual growth inhibition rate, velvetleaf (AT). An outline of the steps: (§4)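 Seeds were sown in upland soil pots, and plants were sprayed on the foliage at a predetermined leaf stage with herbicidal compositions diluted in water at 300 L/ha. Growth inhibition was rated visually. Expected combination activity was calculated by Colby's formula to assess synergy.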

The test system of assay [4] is crabgrass (Digitaria sanguinalis L.). The experiment in a line: Foliar treatment pot test, visual growth inhibition rate, crabgrass (DS). The following applies: Digitaria sanguinalis, foliar. An outline of the steps: as §4

In the case of `COC(=O)c1sccc1S(=O)(=O)NC(=O)Nc1nc(C)nc(OC)n1` [Thifensulfuron-methyl], the inhibition at 5 g/ha in assay [1] (5 g/ha) is 0%; in assay [2] (4.0-5.0 leaf stage, 14 DAT, 5 g/ha), 0%.
Regarding `CCCCCCCCSC(=O)Oc1cc(Cl)nnc1-c1ccccc1` [Pyridate, pyridate], the inhibition at 100 g/ha in assay [1] (100 g/ha) came out at 0%; in assay [2] (4.0-5.0 leaf stage, 14 DAT, 100 g/ha), 0%. Moreover, the inhibition at 200 g/ha in assay [3] (Abutilon theophrasti, foliar, 336 h, 4.1-4.5 leaf stage, 14 DAT, 200 g/ha, read-out: Growth inhibition rate (%) of AT Measured value) is 30%; in assay [4] (528 h, 4.0-5.0 leaf stage, 22 DAT, 200 g/ha, read-out: Growth inhibition rate (%) of DS Measured value), 0%.
Take `CCn1ncc(C(=O)c2ccc(S(C)(=O)=O)c(OCCOC)c2C)c1OC(C)OC(=O)OC` (centres unmarked) [NO. 4, 1-(1-ethyl-4-(3-(2-methoxyethoxy)-2-methyl-4-(methylsulfonyl)benzoyl)-1H-pyrazol-5-yloxy)ethyl methyl carbonate]: the “Growth inhibition rate (%) of AT Measured value” in assay [3] (3.0-4.0 leaf stage, 14 DAT, 15 g/ha) was determined as 80%; in assay [3] (4.0-4.2 leaf stage, 20 DAT, 20 g/ha), 98%; in assay [3] (4.2-4.3 leaf stage, 20 DAT, 5 g/ha) it was 58%; in assay [3] (4.2-4.3 leaf stage, 20 DAT, 10 g/ha) it was 65%. The inhibition at 7 g/ha in assay [3] (Abutilon theophrasti, foliar, 336 h, read-out: Growth inhibition rate (%) of AT Measured value, 3.0-4.0 leaf stage, 14 DAT, 7 g/ha) is 70%; in assay [2] it was 75%; in assay [4] (336 h, read-out: Growth inhibition rate (%) of DS Measured value, 5.0-5.5 leaf stage, 14 DAT, 7 g/ha) it was 75%; in assay [4] (552 h, read-out: Growth inhibition rate (%) of DS Measured value, 4.0-5.1 leaf stage, 23 DAT, 7 g/ha), 80%. Also, the inhibition at 5 g/ha in assay [3] (Abutilon theophrasti, foliar, 480 h, read-out: Growth inhibition rate (%) of AT Measured value, 4.0-4.2 leaf stage, 20 DAT, 5 g/ha) is 48%; in assay [3] (Abutilon theophrasti, foliar, 480 h, read-out: Growth inhibition rate (%) of AT Measured value, 4.1-4.2 leaf stage, 20 DAT, 5 g/ha) it was 55%; in assay [3] (Abutilon theophrasti, foliar, 504 h, read-out: Growth inhibition rate (%) of AT Measured value, 4.0-4.3 leaf stage, 21 DAT, 5 g/ha), 35%; in assay [3] (Abutilon theophrasti, foliar, 504 h, read-out: Growth inhibition rate (%) of AT Measured value, AT 4.0-4.3 leaf stage, 21 DAT, active ingredient 5 g/ha) it was 35%; in assay [3] (Abutilon theophrasti, foliar, 528 h, read-out: Growth inhibition rate (%) of AT Measured value, 4.5-5.0 leaf stage, 22 DAT, 5 g/ha) it was 40%; in assay [3] (Abutilon theophrasti, foliar, 552 h, read-out: Growth inhibition rate (%) of AT Measured value, 3.0-4.2 leaf stage, 23 DAT, 5 g/ha), 75%. Further, the inhibition at 5 g/ha in assay [4] (480 h, read-out: Growth inhibition rate (%) of DS Measured value, 3.6-3.8 leaf stage, 20 DAT, 5 g/ha) came out at 40%; in assay [4] (480 h, read-out: Growth inhibition rate (%) of DS Measured value, 3.7-4.0 leaf stage, 20 DAT, 5 g/ha), 93%; in assay [4] (480 h, read-out: Growth inhibition rate (%) of DS Measured value, 4.0-4.2 leaf stage, 20 DAT, 5 g/ha), 40%; in assay [4] (480 h, read-out: Growth inhibition rate (%) of DS Measured value, 4.5-5.2 leaf stage, 20 DAT, 5 g/ha) it was 53%; in assay [4] (480 h, read-out: Growth inhibition rate (%) of DS Measured value, 5.1-5.2 leaf stage, 20 DAT, 5 g/ha), 48%; in assay [4] (504 h, read-out: Growth inhibition rate (%) of DS Measured value, 4.0-5.1 leaf stage, 21 DAT, 5 g/ha) it was 75%. Besides, the inhibition at 10 g/ha worked out at 73% in assay [3] (Abutilon theophrasti, foliar, 480 h, read-out: Growth inhibition rate (%) of AT Measured value, 4.0-4.2 leaf stage, 20 DAT, 10 g/ha); 63% in assay [3] (Abutilon theophrasti, foliar, 480 h, read-out: Growth inhibition rate (%) of AT Measured value, 4.1-4.2 leaf stage, 20 DAT, 10 g/ha); 63% in assay [3] (Abutilon theophrasti, foliar, 480 h, read-out: Growth inhibition rate (%) of AT Measured value, 4.2-4.3 leaf stage, 20 DAT, 10 g/ha); 60% in assay [3] (Abutilon theophrasti, foliar, 504 h, read-out: Growth inhibition rate (%) of AT Measured value, 4.0-4.3 leaf stage, 21 DAT, 10 g/ha); 60% in assay [3] (Abutilon theophrasti, foliar, 504 h, read-out: Growth inhibition rate (%) of AT Measured value, AT 4.0-4.3 leaf stage, 21 DAT, active ingredient 10 g/ha); 50% in assay [3] (Abutilon theophrasti, foliar, 528 h, read-out: Growth inhibition rate (%) of AT Measured value, 4.5-5.0 leaf stage, 22 DAT, 10 g/ha). Moreover, the inhibition at 10 g/ha was 90% in assay [3] (Abutilon theophrasti, foliar, 552 h, read-out: Growth inhibition rate (%) of AT Measured value, 3.0-4.2 leaf stage, 23 DAT, 10 g/ha); 50% in assay [4] (480 h, read-out: Growth inhibition rate (%) of DS Measured value, 3.6-3.8 leaf stage, 20 DAT, 10 g/ha); 50% in assay [4] (480 h, read-out: Growth inhibition rate (%) of DS Measured value, 4.0-4.2 leaf stage, 20 DAT, 10 g/ha); 89% in assay [4] (480 h, read-out: Growth inhibition rate (%) of DS Measured value, 4.5-5.2 leaf stage, 20 DAT, 10 g/ha); 93% in assay [4] (480 h, read-out: Growth inhibition rate (%) of DS Measured value, 5.0-5.2 leaf stage, 20 DAT, 10 g/ha); 73% in assay [4] (480 h, read-out: Growth inhibition rate (%) of DS Measured value, 5.1-5.2 leaf stage, 20 DAT, 10 g/ha). In assay [4] (552 h, read-out: Growth inhibition rate (%) of DS Measured value, 4.5-5.3 leaf stage, 23 DAT, 10 g/ha), the inhibition at 10 g/ha came out at 87%. For the same compound, the inhibition at 20 g/ha in assay [3] (Abutilon theophrasti, foliar, 480 h, read-out: Growth inhibition rate (%) of AT Measured value, 4.2-4.3 leaf stage, 20 DAT, 20 g/ha) amounted to 70%; in assay [3] (Abutilon theophrasti, foliar, 528 h, read-out: Growth inhibition rate (%) of AT Measured value, 4.5-5.0 leaf stage, 22 DAT, 20 g/ha), 90%; in assay [3] (Abutilon theophrasti, foliar, 552 h, read-out: Growth inhibition rate (%) of AT Measured value, 3.0-4.2 leaf stage, 23 DAT, 20 g/ha), 95%; in assay [4] (480 h, read-out: Growth inhibition rate (%) of DS Measured value, 3.6-3.8 leaf stage, 20 DAT, 20 g/ha), 73%; in assay [4] (480 h, read-out: Growth inhibition rate (%) of DS Measured value, 4.0-4.2 leaf stage, 20 DAT, 20 g/ha), 73%; in assay [4] (480 h, read-out: Growth inhibition rate (%) of DS Measured value, 5.0-5.2 leaf stage, 20 DAT, 20 g/ha), 98%. Besides, the inhibition at 20 g/ha was determined as 94% in assay [4] (528 h, read-out: Growth inhibition rate (%) of DS Measured value, 4.8-5.5 leaf stage, 22 DAT, 20 g/ha) and 99% in assay [4] (552 h, read-out: Growth inhibition rate (%) of DS Measured value, 4.5-5.3 leaf stage, 23 DAT, 20 g/ha).
